The numbers were not newly measured in patent EP4670741A1 (priority 2023, dated 2024), which cites them from elsewhere.

Series [1] has as its system various cancer cell lines. To be noted: read-out: IC50 values; 140 cell lines derived from various tumor types; majority of tested cancer cells.
Series [2] concerns the target T1, Topoisomerase I (Homo sapiens, UniProt P11387).
T1 sequence (P11387 1-765): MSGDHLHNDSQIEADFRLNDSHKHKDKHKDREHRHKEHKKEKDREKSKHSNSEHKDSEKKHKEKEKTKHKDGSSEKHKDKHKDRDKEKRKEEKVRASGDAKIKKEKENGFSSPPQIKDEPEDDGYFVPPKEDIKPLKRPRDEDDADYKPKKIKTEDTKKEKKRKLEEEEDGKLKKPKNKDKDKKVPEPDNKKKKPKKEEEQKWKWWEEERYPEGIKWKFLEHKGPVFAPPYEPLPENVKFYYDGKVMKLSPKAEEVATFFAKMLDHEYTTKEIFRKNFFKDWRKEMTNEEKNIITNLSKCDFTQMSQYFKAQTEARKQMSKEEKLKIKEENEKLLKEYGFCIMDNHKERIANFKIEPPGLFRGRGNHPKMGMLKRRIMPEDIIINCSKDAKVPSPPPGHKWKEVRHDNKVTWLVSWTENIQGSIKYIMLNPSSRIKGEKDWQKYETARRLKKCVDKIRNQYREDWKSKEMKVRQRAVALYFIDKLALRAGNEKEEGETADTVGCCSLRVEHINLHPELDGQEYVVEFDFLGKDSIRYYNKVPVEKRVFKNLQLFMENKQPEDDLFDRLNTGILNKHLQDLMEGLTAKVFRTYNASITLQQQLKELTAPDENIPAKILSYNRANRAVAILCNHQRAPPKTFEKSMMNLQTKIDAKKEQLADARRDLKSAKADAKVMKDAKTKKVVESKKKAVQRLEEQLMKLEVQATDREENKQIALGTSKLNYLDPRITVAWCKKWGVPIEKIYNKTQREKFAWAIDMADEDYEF
As to conditions: Topoisomerase I inhibitor.

pIC50: −log10 of the molar value. Where only a bound is given, the exact number is not on record here.

With `CC[C@@]1(O)C(=O)OCc2c1cc1n(c2=O)Cc2cc3cc4c(cc3nc2-1)OCO4` [FL118], the pIC50 in series [1] was more than 7.00.
Take `CC[C@@]1(O)C(=O)OCc2c1cc1n(c2=O)Cc2c-1nc1cc(F)c(C)c3c1c2[C@@H](NC(=O)CO)CC3` [Dxd]: in series [2], the negative logarithm of the IC50 (pIC50) was 6.51.
